In the assay the target is T1, cereblon (CRBN)—DNA damage protein 1 (DDB1) complex (Homo sapiens, UniProt Q96SW2).
T1 construct: encoding amino acid residues 1 to 442 (Uniprot Q96SW2); hexahistidine (N); thrombin cleavage site (N); made in house; host or cells: Sf9 insect cells (baculovirus co-infection)
Description: Cereblon HTRF binding assay. An excerpt: The synthesized sequence was designed to encode an N-terminal hexahistidine tag, a thrombin cleavage site, an AviTag™ and a tobacco etch virus protease (TEV) cleavage site followed by the CBRN sequence. The resulting protein sequence is listed below.
The synthesized sequence was designed to encode an N-terminal hexahistidine tag, a tobacco etch virus protease (TEV) cleavage site followed by the DDB1 sequence. […] The linker amino acid residues are underlined and shown in italics.
Baculovirus production of CBRN and DDB1: Recombinant bacmid and P2 virus of CBRN and DDB1 was generated according to the Bac-to-Bac Baculovirus Expression System manual (ThermoFisher Scientific).
Protein Purification: Protein purification was initiated by thawing cells (resuspended in Lysis buffer) at r.t. Once thawed, NaCl was added to a final concentration of 200 mM, followed by 0.01 μL/mL Benzonase™ and the lysate was incubated with slow stirring for 20 minutes. After the freeze-thaw lysis, the whole cell lysate was centrifuged at 48 000 g for 45 minutes and all following purification steps were done on ice or in cold-room. Supernatant (cell lysate) was mixed with 1 mL/50 mL lysate Ni Sepharose™ 6 Fast Flow (Cytiva) pre-equilibrated with Wash buffer (50 mM Tris-Cl pH 8, 20 mM Imidazole, 500 mM NaCl, 10% Glycerol, 1 mM TCEP) and incubated with slow stirring for 1 h. The mix was loaded in a 70 mL open gravity flow column, washed with 10 bed volumes of Wash buffer, and stepwise eluted with 300 mM imidazole in Wash buffer. […] After biotinylation, the CBRN/DDB1 complex was purified by Size Exclusion Chromatography on a HiLoad™ 26/60 Superdex™ 200 column equilibrated in SEC buffer (50 mM HEPES pH 7.5, 200 mM NaCl, 5% glycerol, 1 mM TCEP) before flash-freezing in liquid nitrogen and storage at −80° C.
The assay mixture in a total volume of 4 μL consists of 50 mM Tris-HCl at pH 7.5, 100 mM NaCl, 0.01% Pluronic F127, 1 mM TCEP, 500 μM EDTA, 0.2 nM CRBN-DDB1, 0.2 nM terbium cryptate labeled streptavidin, and 2 nM Cyanine 5-labeled lenalidomide as the probe. […] Reagents were dispensed into the 384-well assay microplate using a Certus Flex liquid dispenser. After incubation for 2 h at r.t., the assay plates were read on a PHERAstar FSX plate reader (BMG Labtech) in the HTRF mode. The raw data from PHERAstar was directly imported into Genedata Screener for analysis. […] The ratio was normalized to positive and negative controls on the same plates to calculate percent inhibition: I %=(I−NC)/(PC−NC), where I are readings from the compound treated well, NC and PC are average readings from negative control wells and positive control wells, respectively. IC50 values were obtained by fitting the I % vs. compound concentration [I] to I %=S0+(SInf−S0)/(1+((IC50/[I])^n)), where S0 is the fitted activity level at zero concentration of test compound, SInf is the fitted activity level at […] concentration of test compound, and n is the hill coefficient of the curve.
The IC50 values reported below are the calculated mean result of one or more experiments.
A general note: Time-resolved FRET reads energy transfer from a long-lived donor to a nearby acceptor.

The values that follow come from patent US20230374007A1, “COMPOUNDS AND THEIR USE IN TREATING CANCER” (AstraZeneca AB, priority 2020, published 2023).

pIC50: −log10 of the molar value.

T1 sequence (Q96SW2 with tags, fused parts or gaps): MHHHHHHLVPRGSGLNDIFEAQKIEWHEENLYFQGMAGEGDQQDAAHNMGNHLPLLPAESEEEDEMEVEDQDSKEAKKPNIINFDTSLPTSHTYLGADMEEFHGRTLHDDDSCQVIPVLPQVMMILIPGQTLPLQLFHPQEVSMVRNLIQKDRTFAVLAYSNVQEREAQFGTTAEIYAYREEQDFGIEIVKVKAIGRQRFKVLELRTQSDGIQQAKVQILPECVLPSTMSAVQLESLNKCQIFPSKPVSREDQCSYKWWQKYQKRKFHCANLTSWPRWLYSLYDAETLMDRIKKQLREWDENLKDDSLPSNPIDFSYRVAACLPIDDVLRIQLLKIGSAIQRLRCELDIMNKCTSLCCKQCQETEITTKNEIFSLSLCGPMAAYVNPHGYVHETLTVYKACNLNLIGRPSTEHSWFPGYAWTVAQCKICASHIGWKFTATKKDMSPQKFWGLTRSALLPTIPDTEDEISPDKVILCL

Broadly, the pIC50 is the IC50 on a negative log10 scale, so that one unit is a factor of ten. As to `CNC(=O)Cn1ccc2ccc(N3CCC(=O)NC3=O)cc21` [Example 68, 2-(6-(2,4-Dioxotetrahydropyrimidin-1 (2H)-yl)-1H-indol-1-yl)-N-methylacetamide], the pIC50 is 5.65.

Compound `CN(C)c1cc(N2CCC(=O)NC2=O)cc2[nH]ccc12` [Example 133, 1-(4-(Dimethylamino)-1H-indol-6-yl)dihydropyrimidine-2,4 (1H,3H)-dione] gave a pIC50 of 5.55. The pIC50 values of the last two compounds are within 0.2 log units of each other.

For `CN1CCCc2cc(N3CCC(=O)NC3=O)ccc21` [Example 27, 1-(1-Methyl-1,2,3,4-tetrahydroquinolin-6-yl)dihydropyrimidine-2,4 (1H,3H)-dione], the pIC50 is 5.98.

Regarding `CN1CCC(c2cc3ccc(N4CCC(=O)NC4=O)cc3n2C)CC1` [Example 85, 1-(1-Methyl-2-(1-methylpiperidin-4-yl)-1H-indol-6-yl)dihydropyrimidine-2,4 (1H,3H)-dione], the pIC50 is 6.71.

In the case of `Cn1ccc2cc(N3CCC(=O)NC3=O)cnc21` [Example 11, 1-(1-Methyl-1H-pyrrolo[2,3-b]pyridin-5-yl)dihydropyrimidine-2,4 (1H,3H)-dione], the pIC50 was 4.57.

With `O=C1CCN(c2ccc3c(c2)CCN3)C(=O)N1` [Example 20, 1-(Indolin-5-yl)dihydropyrimidine-2,4 (1H,3H)-dione], the pIC50 is 6.45.

Consider `COc1cc(N2CCC(=O)NC2=O)c2ccn(C)c2c1` [Example 16, 1-(6-Methoxy-1-methyl-1H-indol-4-yl)dihydropyrimidine-2,4 (1H,3H)-dione], for which the pIC50 was 6.68. This pIC50 is 0.23 log units higher than that of the compound before.

With `O=C1CCN(c2ccc3ccn(C4CCNCC4)c3c2)C(=O)N1` [Example 120, 1-(1-(Piperidin-4-yl)-1H-indol-6-yl)dihydropyrimidine-2,4 (1H,3H)-dione], the negative-log IC50 (pIC50) was 5.66.

Regarding `CN1CCC(n2ccc3ccc(N4CCC(=O)NC4=O)cc32)CC1` [Example 121, 1-(1-(1-Methylpiperidin-4-yl)-1H-indol-6-yl)dihydropyrimidine-2,4 (1H,3H)-dione], the pIC50 was 5.42.

Take `CN1CCC(c2cc3c(N4CCC(=O)NC4=O)cccc3n2C)CC1` [Example 89, 1-(1-Methyl-2-(1-methylpiperidin-4-yl)-1H-indol-4-yl)dihydropyrimidine-2,4 (1H,3H)-dione]: the pIC50 is 5.92.

The compound `O=C(O)Cc1c[nH]c2cc(N3CCC(=O)NC3=O)ccc12` [Example 65, 2-(6-(2,4-Dioxotetrahydropyrimidin-1 (2H)-yl)-1H-indol-3-yl)acetic acid] showed a pIC50 of 6.12.

With `O=C1CCN(c2cccc3ncsc23)C(=O)N1` [Example 2, 1-(Benzo[d]thiazol-7-yl)dihydropyrimidine-2,4 (1H,3H)-dione], the pIC50 was 5.70. This pIC50 is 0.42 log units lower than that of the compound before.

Consider `Cn1cc(N2CCNCC2)c2cc(N3CCC(=O)NC3=O)ccc21` [Example 76, 1-(1-Methyl-3-(piperazin-1-yl)-1H-indol-5-yl)dihydropyrimidine-2,4 (1H,3H)-dione], for which the pIC50 was 5.72.

For `CNC(=O)CCn1ccc2ccc(N3CCC(=O)NC3=O)cc21` [Example 69, 3-(6-(2,4-Dioxotetrahydropyrimidin-1 (2H)-yl)-1H-indol-1-yl)-N-methylpropanamide], the pIC50 is 5.45.

As for `CC(=O)N1CCC(n2ccc3ccc(N4CCC(=O)NC4=O)cc32)CC1` [Example 122, 1-(1-(1-Acetylpiperidin-4-yl)-1H-indol-6-yl)dihydropyrimidine-2,4 (1H,3H)-dione], the pIC50 is 5.67.

`O=C1CCN(c2cc(Cl)c3cc[nH]c3c2)C(=O)N1` [Example 53, 1-(4-Chloro-1H-indol-6-yl)dihydropyrimidine-2,4 (1H,3H)-dione] showed a pIC50 of 6.61. Compared with the last compound, the pIC50 is 0.94 log units higher.

The compound `O=C1CCN(c2cccc3ncoc23)C(=O)N1` [Example 4, 1-(Benzo[d]oxazol-7-yl)dihydropyrimidine-2,4 (1H,3H)-dione] had a pIC50 of 5.41.

For the compound `CN1CCC(c2cn(C)c3cc(N4CCC(=O)NC4=O)ccc23)CC1` [Example 119, 1-(1-Methyl-3-(1-methylpiperidin-4-yl)-1H-indol-6-yl)dihydropyrimidine-2,4 (1H,3H)-dione], the pIC50 was 5.84. Compared with the last compound, the pIC50 is 0.43 log units higher.

Regarding `O=C1CCN(c2cccc3[nH]ncc23)C(=O)N1` [Example 34, 1-(1H-Indazol-4-yl)dihydropyrimidine-2,4 (1H,3H)-dione], the pIC50 was 6.20.

`O=C1CCN(c2ccc3c(c2)CNC3)C(=O)N1` [Example 24, 1-(Isoindolin-5-yl)dihydropyrimidine-2,4 (1H,3H)-dione]: the pIC50 was 5.05.

In turn, `O=C1CCN(c2ccc3c(c2)NCCC3)C(=O)N1` [Example 32, 1-(1,2,3,4-Tetrahydroquinolin-7-yl)dihydropyrimidine-2,4 (1H,3H)-dione] gave a pIC50 of 5.91.

`O=C1CCN(c2cccc3nc(N4CCNCC4)sc23)C(=O)N1` [Example 101, 1-(2-(Piperazin-1-yl)benzo[d]thiazol-7-yl)dihydropyrimidine-2,4 (1H,3H)-dione] showed a pIC50 of 6.79.

`O=C1CCN(c2ccc3ncsc3c2)C(=O)N1` [Example 9, 1-(Benzo[d]thiazol-6-yl)dihydropyrimidine-2,4 (1H,3H)-dione] had a pIC50 of 5.27.

Regarding `CN1CCN(c2noc3cc(N4CCC(=O)NC4=O)ccc23)CC1` [Example 94, 1-(3-(4-Methylpiperazin-1-yl)benzo[d]isoxazol-6-yl)dihydropyrimidine-2,4 (1H,3H)-dione], the pIC50 is 5.38.

Turning to `O=C1CCN(c2ccn3cc(C4CCNCC4)nc3c2)C(=O)N1` [Example 92, 1-(2-(Piperidin-4-yl)imidazo[1,2-a]pyridin-7-yl)dihydropyrimidine-2,4 (1H,3H)-dione], the pIC50 was 5.28.

With `O=C1CCN(c2ccc3nc[nH]c3c2)C(=O)N1` [Example 41, 1-(1H-Benzo[d]imidazol-6-yl)dihydropyrimidine-2,4 (1H,311)-dione], the pIC50 was 5.93.

Regarding `O=C1CCN(c2ccc3ncoc3c2)C(=O)N1` [Example 5, 1-(Benzo[d]oxazol-6-yl)dihydropyrimidine-2,4 (1H,3H)-dione], the pIC50 was 5.17.

Regarding `O=C1NC(=O)N(c2ccc3cc[nH]c3c2)CC1F` (stereo not drawn) [Example 45, 5-Fluoro-1-(1H-indol-6-yl)dihydropyrimidine-2,4 (1H,3H)-dione], the pIC50 was 6.01.

The compound `Cn1c(=O)oc2cc(N3CCC(=O)NC3=O)ccc21` [Example 12, 1-(3-Methyl-2-oxo-2,3-dihydrobenzo[d]oxazol-6-yl)dihydropyrimidine-2,4 (1H,3H)-dione] gave a pIC50 of 4.96. This pIC50 is 1.05 log units lower than that of the compound before.

Regarding `CN1CCc2cc(N3CCC(=O)NC3=O)ccc21` [Example 21, 1-(1-Methylindolin-5-yl)dihydropyrimidine-2,4 (1H,3H)-dione], the pIC50 was 6.11. This pIC50 lies 1.15 log units higher than the previous one.

`O=C1CCN(c2ccc3cc4n(c3c2)CCNC4)C(=O)N1` [Example 102, 1-(1,2,3,4-Tetrahydropyrazino[1,2-a]indol-7-yl)dihydropyrimidine-2,4 (1H,3H)-dione]: the pIC50 is 6.56.

Compound `Cc1cc(N2CCC(=O)NC2=O)cc2[nH]ccc12` [Example 51, 1-(4-Methyl-1H-indol-6-yl)dihydropyrimidine-2,4 (1H,3H)-dione] gave a pIC50 of 6.29. This pIC50 lies 0.27 log units lower than the previous one.

For `CN1CCc2cc(N3CCC(=O)NC3=O)ccc2C1` [Example 31, 1-(2-Methyl-1,2,3,4-tetrahydroisoquinolin-6-yl)dihydropyrimidine-2,4 (1H,3H)-dione], the pIC50 was 5.39.

Turning to `O=C1CCN(c2ccc3c(C4CCNCC4)c[nH]c3c2)C(=O)N1` [Example 116, 1-(3-(Piperidin-4-yl)-1H-indol-6-yl)dihydropyrimidine-2,4 (1H,3H)-dione], the pIC50 was 6.43.

`CN1CCC(c2nc3ccc(N4CCC(=O)NC4=O)cc3o2)CC1` [Example 97, 1-(2-(1-Methylpiperidin-4-yl)benzo[d]oxazol-6-yl)dihydropyrimidine-2,4 (1H,3H)-dione] gave a pIC50 of 5.62.

`Cn1ccc2c(N3CCC(=O)NC3=O)ccc(N3CCNCC3)c21` [Example 125, 1-(1-Methyl-7-(piperazin-1-yl)-1H-indol-4-yl)dihydropyrimidine-2,4 (1H,3H)-dione] had a pIC50 of 6.34. Compared with the last compound, the pIC50 is 0.72 log units higher.
